Measurements: patent US20150105252A1, “SUBSTITUTED PYRAZOLES AS HERBICIDES” (E I DU PONT DE NEMOURS AND COMPANY, priority 2013, published 2015)

What was measured:
[1] = test system: barley, spring; test: Test D postemergence; type: in vivo, Hordeum vulgare; details: scale 0 to 100
Excerpt: (§1) Seeds of plant species selected from bluegrass (annual bluegrass, Poa annua), blackgrass (Alopecurus myosuroides), canarygrass (littleseed canarygrass, Phalaris minor), chickweed (common chickweed, Stellaria media), galium (catchweed bedstraw, Galium aparine), bromegrass, downy (downy bromegrass, Bromus tectorum), field poppy (Papaver rhoeas), field violet (Viola arvensis), foxtail, green (green foxtail, Setaria viridis), deadnettle (henbit deadnettle, Lamium amplexicaule), ryegrass, Italian (Italian ryegrass, Lolium multiflorum), kochia (Kochia scoparia), lambsquarters (Chenopodium album), oilseed rape (Brassica napus), pigweed (redroot pigweed, Amaranthus retroflexus), chamomile (scentless chamomile, Matricaria inodora), speedwell (bird's-eye speedwell, Veronica persica), barley, spring (spring barley, Hordeum vulgare), wheat, spring (spring wheat, Triticum aestivum), buckwheat, wild (wild buckwheat, Polygonum convolvulus), mustard, wild (wild mustard, Sinapis arvensis), oat, wild (wild oat, Avena fatua), radish, wild (wild radish, Raphanus raphanistrum), windgrass (Apera spica-venti), Russian thistle (Salsola kali), barley, winter (winter barley, Hordeum vulgare), and wheat, winter (winter wheat, Triticum aestivum) were planted into a silt loam soil and treated preemergence with test chemicals formulated in a non-phytotoxic solvent mixture which included a surfactant.
(§2) At the same time, these species were planted in pots containing Redi-Earth® planting medium (Scotts Company, 14111 Scottslawn Road, Marysville, Ohio 43041) comprising spaghnum peat moss, vermiculite, wetting agent and starter nutrients and treated with postemergence applications of the test chemicals formulated in the same manner. Plants ranged in height from 2 to 18 cm (1- to 4-leaf stage). Treated plants and controls were maintained in a controlled growth environment for 14 to 21 days after which time all species were compared to controls and visually evaluated. Plant response ratings, summarized in Table D, are based on a scale of 0 to 100 where 0 is no effect and 100 is complete control. A dash (-) response means no test result.

[2] = test system: barley, winter; test: Test D postemergence; type: in vivo, Hordeum vulgare; details: scale 0 to 100
Excerpt: as §1, §2

[3] = test system: pigweed; test: Test C preemergence; type: in vivo, Amaranthus retroflexus; details: preemergence; for Plant response rating, Pigweed: 125 g ai/ha, scale 0 to 100, 0 = no effect, 100 = complete control
In short: (§3)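 Seeds were sown in a loam soil–sand blend and sprayed preemergence with compounds formulated in a non-phytotoxic solvent mixture containing surfactant. Postemergence plants, grown in peat/vermiculite medium to 2–18 cm (1- to 4-leaf stage), received the same formulation. After 13 to 15 days in a greenhouse, injury was rated visually against controls (0 = no effect, 100 = complete control).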

[4] = test system: blackgrass; test: Test D postemergence; type: in vivo, Alopecurus myosuroides; details: scale 0 to 100
Excerpt: as §1, §2

[5] = test system: pigweed; test: Test D postemergence; type: in vivo, Amaranthus retroflexus; details: scale 0 to 100
Excerpt: as §1, §2

[6] = test system: ryegrass, Italian; test: Test C postemergence; type: in vivo, Lolium multiflorum; details: postemergence
In short: as §3

[7] = test system: soybean; test: Test C preemergence; type: in vivo, Glycine max; details: preemergence; for Plant response rating, Soybean: 125 g ai/ha, scale 0 to 100, 0 = no effect, 100 = complete control
In short: as §3

[8] = test system: ragweed; test: Test C postemergence; type: in vivo, Ambrosia elation; details: postemergence
In short: as §3

[9] = 31 g ai/ha, visual rating, scale 0 to 100 (0 no effect, 100 complete control), 13 to 15 days
[10] = 62 g ai/ha, scale 0 to 100 (0 no effect, 100 complete control), 13 to 15 days
[11] = 250 g ai/ha, scale 0 to 100, 0 is no effect, 100 is complete control
[12] = 250 g ai/ha, scale 0 to 100 (0 no effect, 100 complete control)
[13] = 125 g ai/ha, scale 0 to 100, 0 no effect, 100 complete control

Row | Structure (SMILES) | Barley, Spring plant response rating ([1]; Postemergence, 31 g ai/ha) | Barley, Spring plant response rating ([1]; Postemergence, 125 g ai/ha) | Barley, Spring plant response rating ([1]; Postemergence, 250 g ai/ha) | Barley, Spring plant response rating ([1]; postemergence, 62 g ai/ha) | Barley, Winter plant response rating ([2]; Postemergence, 31 g ai/ha) | Barley, Winter plant response rating ([2]; Postemergence, 125 g ai/ha) | Barley, Winter plant response rating ([2]; Postemergence, 250 g ai/ha) | Barley, Winter plant response rating ([2]; postemergence, 62 g ai/ha) | Pigweed plant response rating [3, 9] | Pigweed plant response rating [3, 10] | Plant response rating, Pigweed ([3]; 13 to 15 days) | Pigweed plant response rating [3, 11] | Blackgrass plant response rating ([4]; Postemergence, 31 g ai/ha) | Blackgrass plant response rating ([4]; Postemergence, 125 g ai/ha) | Blackgrass plant response rating ([4]; Postemergence, 250 g ai/ha) | Blackgrass plant response rating ([4]; postemergence, 62 g ai/ha) | Pigweed plant response rating ([5]; Postemergence, 31 g ai/ha) | Pigweed plant response rating ([5]; Postemergence, 125 g ai/ha) | Pigweed plant response rating ([5]; Postemergence, 250 g ai/ha) | Pigweed plant response rating ([5]; postemergence, 62 g ai/ha) | also measured
1 | CCCc1cc(C(=O)NC(C)C)nn1Cc1cc(C(F)(F)F)nn1C [Compound 201] | 25 | 25 | 40 | 25 | 20 | 25 | 35 | 20 | 100 | 100 | 98 | 98 | 25 | 50 | 65 | 25 | 70 | 75 | 80 | 70 | Plant response rating, Ryegrass, Italian [6, 12]: 15; Plant response rating, Ryegrass, Italian [6, 13]: 5; Soybean plant response rating [7, 9]: 70; Soybean plant response rating [7, 10]: 85; Plant response rating, Soybean ([7]; 13 to 15 days): 95; Soybean plant response rating [7, 11]: 98; Plant response rating, Ragweed [8, 12]: 85; Plant response rating, Ragweed [8, 13]: 60
2 | CCCc1cc(C(=O)NC2CC2)nn1Cc1cc(C(F)(F)F)nn1C [Compound 202] | 20 | 25 | 30 | 20 | 15 | 15 | 25 | 15 | 100 | 100 | 100 | 100 | 15 | 25 | 35 | 15 | 70 | 80 | 85 | 70 | Plant response rating, Ryegrass, Italian [6, 12]: 5; Plant response rating, Ryegrass, Italian [6, 13]: 5; Soybean plant response rating [7, 9]: 65; Soybean plant response rating [7, 10]: 70; Plant response rating, Soybean ([7]; 13 to 15 days): 85; Soybean plant response rating [7, 11]: 98; Plant response rating, Ragweed [8, 12]: 80; Plant response rating, Ragweed [8, 13]: 65
3 | CCc1cc(C(=O)NCC(F)(F)F)nn1Cc1ccnc(SC(F)(F)F)c1 [Compound 214] | 15 | 20 | 40 | 15 | 20 | 30 | 35 | 20 | 100 | 100 | 100 | 100 | 15 | 20 | 70 | 15 | 90 | 90 | 95 | 90 | Plant response rating, Ryegrass, Italian [6, 12]: 15; Plant response rating, Ryegrass, Italian [6, 13]: 5; Soybean plant response rating [7, 9]: 60; Soybean plant response rating [7, 10]: 85; Plant response rating, Soybean ([7]; 13 to 15 days): 90; Soybean plant response rating [7, 11]: 95; Plant response rating, Ragweed [8, 12]: 70; Plant response rating, Ragweed [8, 13]: 35
